Data published in ChEMBL document CHEMBL1201862, “PubChem BioAssay data set” (2004).
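All cell lines were grown in 96-well plates and treated with compound for 48 hours. Here, GI50 denotes the concentration required for 50% inhibition of growth.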 Active and inactive are the calls of the source. No stated cut-off is given here; in the data, active = GI50 up to about 1.1 µM and inactive = higher.

Assays:
Experiment in all cases: DTP human tumour cell line panel, 48 h
[1] = test system: CAKI-1
[2] = test system: SR
[3] = test system: U-251
[4] = test system: DU-145
[5] = test system: HCC 2998
[6] = test system: MOLT-4
[7] = test system: NCI-H226
[8] = test system: EKVX
[9] = test system: UACC-62
[10] = test system: SNB-19
[11] = test system: NCI/ADR-RES
[12] = test system: T47D
[13] = test system: MDA-MB-435
[14] = test system: SK-MEL-2
[15] = test system: OVCAR-5
[16] = test system: LOX IMVI
[17] = test system: HCT-15
[18] = test system: HT-29
[19] = test system: RXF 393
[20] = test system: CCRF-CEM

| SMILES | GI50 [1] | GI50 [2] | GI50 [3] | GI50 [4] | GI50 [5] | GI50 [6] | GI50 [7] | GI50 [8] | GI50 [9] | GI50 [10] | GI50 [11] | GI50 [12] | GI50 [13] | GI50 [14] | GI50 [15] | GI50 [16] | GI50 [17] [µM] | GI50 [18] | GI50 [19] | GI50 [20] |
| --- | --- | --- | --- | --- | --- | --- | --- | --- | --- | --- | --- | --- | --- | --- | --- | --- | --- | --- | --- | --- |
| Cc1ccc(S(=O)(=O)c2ccsc2NC(=O)c2ccccc2)cc1 | 40.7 µM (inactive) | 4.79 µM (inactive) | 49.3 µM (inactive) | > 100 µM (inactive) | > 100 µM (inactive) | > 100 µM (inactive) | > 60.4 µM (inactive) | > 55.6 µM (inactive) | > 100 µM (inactive) | > 64.3 µM (inactive) | 35.2 µM (inactive) | > 100 µM (inactive) | 3.11 µM (inactive) | > 57 µM (inactive) | > 100 µM (inactive) | > 64 µM (inactive) | > 100 |  |  |  |
| COC(=O)c1ccccc1/C=C1\Cc2cc3c(cc2C1=O)CCC3 | > 100 µM (inactive) | > 100 µM (inactive) | 43 µM (inactive) | > 100 µM (inactive) | > 100 µM (inactive) | > 100 µM (inactive) | > 100 µM (inactive) | > 100 µM (inactive) | 32.1 µM (inactive) | > 100 µM (inactive) | > 100 µM (inactive) | > 100 µM (inactive) | 3.89 µM (inactive) | 20.7 µM (inactive) | > 100 µM (inactive) | > 100 µM (inactive) | 29.8 | > 100 µM (inactive) |  |  |
| N#CC(C#N)=C(N)/C(C#N)=C/c1ccc2ccccc2n1 | 22.6 µM (inactive) |  | > 10 µM (inactive) | > 100 µM (inactive) | 77.3 µM (inactive) | 30.3 µM (inactive) | 93.5 µM (inactive) | > 100 µM (inactive) | 18.8 µM (inactive) | 24.3 µM (inactive) | 34.3 µM (inactive) | > 100 µM (inactive) | 30.5 µM (inactive) | 35 µM (inactive) | > 100 µM (inactive) | 19.3 µM (inactive) | 28.8 | 18.6 µM (inactive) | 20 µM (inactive) | 24.1 µM (inactive) |
| Cc1ccc(NC(=O)COc2ccc(Cl)cc2)cc1Cl | 18.7 µM (inactive) | 10.1 µM (inactive) | 27.4 µM (inactive) | > 100 µM (inactive) |  | > 100 µM (inactive) | 31 µM (inactive) | 46.3 µM (inactive) | 53.3 µM (inactive) | 74.1 µM (inactive) | 78.2 µM (inactive) | > 100 µM (inactive) | > 100 µM (inactive) | > 100 µM (inactive) | 68.1 µM (inactive) | 82 µM (inactive) | > 100 | > 100 µM (inactive) | 24.7 µM (inactive) | 0.278 µM (active) |
| CCOC(=O)C(C)c1nc2cc(C(F)(F)F)ccc2[nH]c1=O (stereo not drawn) | > 100 µM (inactive) |  | > 100 µM (inactive) | 84.5 µM (inactive) | > 100 µM (inactive) | 85.5 µM (inactive) | > 100 µM (inactive) | 46.5 µM (inactive) | > 100 µM (inactive) | > 100 µM (inactive) | 47.8 µM (inactive) | 15.4 µM (inactive) | > 100 µM (inactive) | > 100 µM (inactive) | > 100 µM (inactive) | > 100 µM (inactive) | > 100 | > 100 µM (inactive) | > 100 µM (inactive) | > 100 µM (inactive) |
| COC1=CC(=O)N(C)C(O)C1(C#N)OC1OC(CO)C(O)C(O)C1O (stereo not drawn) | > 100 µM (inactive) | > 100 µM (inactive) | > 100 µM (inactive) | > 100 µM (inactive) | > 100 µM (inactive) | > 100 µM (inactive) | > 100 µM (inactive) | > 100 µM (inactive) | > 100 µM (inactive) | > 100 µM (inactive) | > 100 µM (inactive) | > 100 µM (inactive) | > 100 µM (inactive) | > 100 µM (inactive) | > 100 µM (inactive) | > 100 µM (inactive) | > 100 | > 10 µM (inactive) |  | > 10 µM (inactive) |
| O=C(COc1ccc(Cl)c(Cl)c1)N(Cc1ccccc1)Cc1ccc[n+](Cc2ccc(Cl)cc2S(=O)(=O)F)c1 | > 100 µM (inactive) | 23.2 µM (inactive) | 25.8 µM (inactive) | > 100 µM (inactive) |  | 21.4 µM (inactive) | > 100 µM (inactive) |  | 62.1 µM (inactive) | 37.8 µM (inactive) | > 100 µM (inactive) | 59.7 µM (inactive) | 29.9 µM (inactive) | 25.4 µM (inactive) | > 100 µM (inactive) |  | 31.5 | > 100 µM (inactive) | > 100 µM (inactive) |  |
| O=C1c2c(O)cc(O)cc2C(C2OC(CO)C(O)C(O)C2O)c2cc(CO)cc(O)c21 (stereo not drawn) |  | > 100 µM (inactive) | > 100 µM (inactive) | > 100 µM (inactive) | > 100 µM (inactive) | > 100 µM (inactive) | > 100 µM (inactive) | > 100 µM (inactive) | > 100 µM (inactive) | > 100 µM (inactive) | > 100 µM (inactive) | > 100 µM (inactive) | > 100 µM (inactive) |  | > 100 µM (inactive) |  | > 100 | > 100 µM (inactive) |  | > 10 µM (inactive) |
